Where “and” joins values, the source holds several entries; their conditions need not be identical. Identical values can stand only once.
Tests used:
lymphocytes = test: Lymphocyte inactivation, 3H thymidine uptake after mitogen stimulation; format: cell-based; conditions: 15 Gy γ-irradiation
[1] = system: encephalomyocarditis virus (EMC); format: cell-based
platelets [2] = test: Survival of infused radiolabeled UVB-irradiated platelets; format: in vivo, dogs; conditions: dog PCs, 36 mJ/cm^2 UVB in presence of 2 mM rutin, 51chromium label
RBCCs = test: Extracellular (plasma) potassium of stored RBCCs
[3] = system: cell-free vesicular stomatitis virus (VSV); format: cell-based
cell-associated VSV = format: cell-based, vesicular stomatitis virus
platelets [4] = test: Platelet aggregation in response to collagen after treatment of platelet concentrate; format: cell-based
[5] = system: red blood cell concentrate; test: Red cell hemolysis after X-irradiation of red blood cell concentrate; conditions: brominated hematoporphyrin derivative, 1 mm rutin
bacteriophage M13 = format: cell-based
platelets [6] = test: Platelet aggregation response to arachidonic acid and ADP after γ-irradiation of PCs; format: cell-based; conditions: 2 mM rutin
[7] = 25 μg/ml AMT and 90 minutes of UVA in presence of flavonoid, overnight storage
[8] = 50 μg/ml AMT, 90 minute UVA, air, +0.5 mM Rutin, experiments 1-5
[9] = flavonoid present, no AMT/UVA treatment, overnight storage

With `C[C@@H]1O[C@@H](OC[C@H]2O[C@@H](Oc3c(-c4ccc(O)c(O)c4)oc4cc(O)cc(O)c4c3=O)[C@H](O)[C@@H](O)[C@@H]2O)[C@H](O)[C@H](O)[C@H]1O` [rutin] the “3H thymidine uptake retained by irradiated lymphocytes” value (lymphocytes; PCs, independent of presence or concentration of rutin) was 1.5%, the “3H thymidine uptake retained by irradiated lymphocytes” value (lymphocytes; RBCCs, independent of presence or concentration of rutin (0.5, 1 or 2 mM)) was 1.5% and the “Virus Kill (log10) EMC” value [1] was “≧7.7 log10”. The “Survival of UV-exposed donor platelets” value (platelets [2]) was 5 days, the “plasma K+” value (RBCCs; RBCC, AlPcS4 treatment then γ-irradiation 25 Gy, rutin present during γ-irradiation and storage, 2 days) was 25 mM and the “plasma K+” value (RBCCs; RBCC, AlPcS4 treatment then γ-irradiation 25 Gy, rutin present during γ-irradiation and storage, 7 days) was 40 mM. The “plasma K+” value (RBCCs; RBCCs, 50 Gy γ-irradiation, 2 mM rutin present during treatment) was 40 mM, the Extracellular potassium (RBCCs; RBCCs, γ-irradiation, 2 mM rutin) was “decreased to control levels” and the “LOG10 VIRUS KILL VSV” value [3] was “≧6 LOG10”. The “Virus Kill (log10) VSV” value [3] was “≧5.4 log10”, the “kill of VSV” value [3] was “exceeded 5 log10” and the “inactivation of cell-associated VSV” value (cell-associated VSV) was ~6 log10. For the same molecule, the “% Untreated Control - Extent of Aggregation Response to Collagen, treated” value (platelets [4]; [7]) was 100/100 % Untreated Control, the “% Untreated Control - Rate of Aggregation Response to Collagen, treated” value (platelets [4]; [7]) was 100/100 % Untreated Control and the “Platelet aggregation, first value of pair (extent as in Table III)” value (platelets [4]; [8]) was 95 and 96/96 and 100 and 100/100 and 98. For the same molecule, the “Platelet aggregation, second value of pair (rate as in Table III)” value (platelets [4]; [8]) was 90 and 96/96 and 84 and 100/100 and 95, the agg response (platelets [4]; Platelet Conc., 50 μg/ml AMT + 57 J/cm^2 UVA, 0.35 mM rutin) was 85% and the “% Untreated Control - Extent of Aggregation Response to Collagen, untreated” value (platelets [4]; [9]) was 100/100 % Untreated Control. For the same molecule, the “% Untreated Control - Rate of Aggregation Response to Collagen, untreated” value (platelets [4]; [9]) was 100/100 % Untreated Control, the aggregation function (platelets [4]; platelet conc., 25, 50 or 100 μg/ml AMT, 90 min UVA, 0.7 mM rutin) was “more than 80 % of the control” and the red cell hemolysis [5] was “less than 2%”. For the same molecule, the “LOG10 VIRUS KILL M13” value (bacteriophage M13) was 6 LOG10 and 3 LOG10 and 5 LOG10, the rate of aggregation (platelets [6]; 50 Gy γ-irradiation, 3 day storage) was 80 % of the control and the Platelet aggregation (platelets [6]; γ-irradiation 15-50 Gy, after 1 day) was 95%.
